{
  "source": "patent US7119075B2",
  "about": "“Use of herbal agents for potentiation of bioefficacy of anti infectives” (priority 2003, dated 2006)",
  "type_in_all_cases": "cell-based",
  "key": {"[1]": {"test_system": "M. tuberculosis", "assay": "MIC of drugs alone and with bioenhancer (Table 7)", "details": "for MIC: Mycobacterium tuberculosis, Drug alone"}, "[2]": {"test_system": "Yeast", "assay": "MIC of drugs alone and with bioenhancer (Table 7)", "details": "Saccharomyces cerevisiae; read-out: MIC Drug alone"}, "[3]": {"test_system": "Filamentous fungi", "assay": "organism not typed", "details": "read-out: MIC Drug alone"}, "[4]": {"test_system": "Gram positive bacteria", "assay": "organism not typed", "details": "read-out: MIC Drug alone"}, "[5]": {"test_system": "Gram negative bacteria", "assay": "organism not typed"}},
  "data": [
    {"smiles": "CC[C@@H](CO)NCCN[C@@H](CC)CO", "note": "[Ethambutol]", "values": [
      {"measurement": "MIC", "setting": "[1]", "result": "1 to 5", "unit": "µg/mL"}
    ]},
    {"smiles": "OC(Cn1cncn1)(Cn1cncn1)c1ccc(F)cc1F", "note": "[Fluconazole]", "values": [
      {"measurement": "MIC", "setting": "[2]", "result": "0.12 to 64", "unit": "µg/mL"}
    ]},
    {"smiles": "NNC(=O)c1ccncc1", "note": "[Isoniazid]", "values": [
      {"measurement": "MIC", "setting": "[1]", "result": "0.12 to 32", "unit": "µg/mL"}
    ]},
    {"smiles": "CC(=O)N1CCN(c2ccc(OCC3COC(Cn4ccnc4)(c4ccc(Cl)cc4Cl)O3)cc2)CC1", "note": "(centres unmarked) [Ketoconazole]", "values": [
      {"measurement": "MIC", "setting": "[2]", "result": "0.12 to 0.5", "unit": "µg/mL"},
      {"measurement": "MIC", "setting": "[3]", "result": "0.25 to 2", "unit": "µg/mL"}
    ]},
    {"smiles": "CCn1cc(C(=O)O)c(=O)c2cc(F)c(N3CCNCC3)cc21", "note": "[Norfloxacin]", "values": [
      {"measurement": "MIC", "setting": "[4]", "result": "0.12 to 32", "unit": "µg/mL"},
      {"measurement": "MIC Drug alone", "setting": "[5]; Drug alone", "result": "0.03 to 64", "unit": "µg/mL"}
    ]},
    {"smiles": "CC1COc2c(N3CCN(C)CC3)c(F)cc3c(=O)c(C(=O)O)cn1c23", "note": "(centres unmarked) [Ofloxacin]", "values": [
      {"measurement": "MIC", "setting": "[4]", "result": "0.12 to 32", "unit": "µg/mL"},
      {"measurement": "MIC", "setting": "[5]; read-out: MIC Drug alone", "result": "0.06 to 32", "unit": "µg/mL"},
      {"measurement": "MIC Drug alone", "setting": "[1]", "result": "0.5 to 25", "unit": "µg/mL"},
      {"measurement": "MIC", "setting": "[1]", "result": "0.5 to 2.5", "unit": "µg/mL"}
    ]},
    {"smiles": "NC(=O)c1cnccn1", "note": "[Pyrazinamide]", "values": [
      {"measurement": "MIC", "setting": "[1]", "result": "6 to 60", "unit": "µg/mL"}
    ]},
    {"smiles": "CO[C@H]1/C=C/O[C@@]2(C)Oc3c(C)c(O)c4c(O)c(c(/C=N/N5CCN(C)CC5)c(O)c4c3C2=O)NC(=O)/C(C)=C\\C=C\\[C@H](C)[C@H](O)[C@@H](C)[C@@H](O)[C@@H](C)[C@H](OC(C)=O)[C@@H]1C", "note": "[Rifampicin]", "values": [
      {"measurement": "MIC", "setting": "[1]", "result": "0.06 to 0.5", "unit": "µg/mL"}
    ]},
    {"smiles": "CN[C@H](CC(C)C)C(=O)N[C@H]1C(=O)N[C@@H](CC(N)=O)C(=O)N[C@H]2C(=O)N[C@H]3C(=O)N[C@H](C(=O)N[C@H](C(=O)O)c4cc(O)cc(O)c4-c4cc3ccc4O)[C@H](O)c3ccc(c(Cl)c3)Oc3cc2cc(c3O[C@@H]2O[C@H](CO)[C@@H](O)[C@H](O)[C@H]2O[C@H]2C[C@](C)(N)[C@H](O)[C@H](C)O2)Oc2ccc(cc2Cl)[C@H]1O", "note": "[Vancomycin]", "values": [
      {"measurement": "MIC", "setting": "[4]", "result": "0.03 to 8", "unit": "µg/mL"}
    ]}
  ]
}
